ChEMBL document CHEMBL4406869, “Benzo[b]thiophene-thiazoles as potent anti-Toxoplasma gondii agents: Design, synthesis, tyrosinase/tyrosine hydroxylase inhibitors, molecular docking study, and antioxidant activity” (Eur J Med Chem, 2019)

Experiments:
[1] = tested on: L929; assay: Cytotoxicity against mouse L929 cells assessed as reduction in cell viability after 24 hrs by MTT assay; type: cell-based; details: l929, 24 h
[2] = molecular target: T1, Tyrosinase (Agaricus bisporus, UniProt O42713); assay: Inhibition of mushroom tyrosinase using L-dopa as substrate by spectrophotometric method
T1 sequence (O42713 whole entry): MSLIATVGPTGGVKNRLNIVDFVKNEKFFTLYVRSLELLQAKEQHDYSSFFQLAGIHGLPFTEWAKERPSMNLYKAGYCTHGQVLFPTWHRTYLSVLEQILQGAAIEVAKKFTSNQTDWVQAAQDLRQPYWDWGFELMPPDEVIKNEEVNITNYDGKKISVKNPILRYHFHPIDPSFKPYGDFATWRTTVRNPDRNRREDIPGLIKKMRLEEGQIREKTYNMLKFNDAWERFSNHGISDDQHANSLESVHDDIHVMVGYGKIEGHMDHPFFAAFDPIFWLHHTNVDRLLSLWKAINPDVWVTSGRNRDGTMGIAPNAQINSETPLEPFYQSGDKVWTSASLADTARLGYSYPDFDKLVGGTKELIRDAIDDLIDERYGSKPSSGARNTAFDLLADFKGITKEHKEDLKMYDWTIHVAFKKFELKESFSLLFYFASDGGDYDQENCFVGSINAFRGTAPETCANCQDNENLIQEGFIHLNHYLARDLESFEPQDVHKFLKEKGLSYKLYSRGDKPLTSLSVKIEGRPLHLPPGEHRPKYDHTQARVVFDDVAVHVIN

[3] = Cytotoxicity against mouse L929 cells assessed as cell viability at 100 ug/ml after 24 hrs by MTT assay relative to control; type: cell-based; details: read-out: Activity
[4] = Cytotoxicity against mouse L929 cells assessed as cell viability at 400 ug/ml after 24 hrs by MTT assay relative to control; type: cell-based; details: read-out: Activity
[5] = tested on: Toxoplasma gondii; assay: Antiparasitic activity against Toxoplasma gondii RH tachyzoites infected in human Hs27 cells assessed as inhibition of parasitic growth preincubated for 24 hrs followed by [5,6-3H]uracil addition and measured after 72 hrs by liquid scintillation counting analysis; type: functional, organism-based
[6] = Cytotoxicity against mouse L929 cells assessed as cell viability at 200 ug/ml after 24 hrs by MTT assay relative to control; type: cell-based; details: read-out: Activity
[7] = Cytotoxicity against mouse L929 cells assessed as cell viability at 50 ug/ml after 24 hrs by MTT assay relative to control; type: cell-based; details: read-out: Activity
[8] = Cytotoxicity against mouse L929 cells assessed as cell viability at 25 ug/ml after 24 hrs by MTT assay relative to control; type: cell-based; details: read-out: Activity
[9] = Cytotoxicity against mouse L929 cells assessed as cell viability at 12.5 ug/ml after 24 hrs by MTT assay relative to control; type: cell-based; details: read-out: Activity
[10] = Cytotoxicity against mouse L929 cells assessed as cell viability at 6.25 ug/ml after 24 hrs by MTT assay relative to control; type: cell-based; details: read-out: Activity
[11] = Cytotoxicity against mouse L929 cells assessed as cell viability at 3.125 ug/ml after 24 hrs by MTT assay relative to control; type: cell-based; details: read-out: Activity
[12] = Cytotoxicity against mouse L929 cells assessed as cell viability at 1.56 ug/ml after 24 hrs by MTT assay relative to control; type: cell-based; details: read-out: Activity
[13] = Cytotoxicity against mouse L929 cells assessed as cell viability at 0.78 ug/ml after 24 hrs by MTT assay relative to control; type: cell-based; details: read-out: Activity
[14] = tested on: Toxoplasma gondii; assay: Antiparasitic activity against Toxoplasma gondii RH tachyzoites infected in human Hs27 cells assessed as reduction in parasite proliferation at 100 ug/mL preincubated for 24 hrs followed by [5,6-3H]uracil addition and measured after 72 hrs by liquid scintillation counting analysis relative to control; type: functional; parameters: scale not given: the % may be the effect or the level left
[15] = tested on: Toxoplasma gondii; assay: Antiparasitic activity against Toxoplasma gondii ME49 tachyzoites infected in human Hs27 cells assessed as reduction in parasite proliferation at 100 ug/mL preincubated for 24 hrs followed by [5,6-3H]uracil addition and measured after 72 hrs by liquid scintillation counting analysis relative to control; type: functional; parameters: scale not given: the % may be the effect or the level left
[16] = tested on: Toxoplasma gondii; assay: Antiparasitic activity against Toxoplasma gondii RH tachyzoites infected in human Hs27 cells assessed as reduction in parasite proliferation at 50 ug/mL preincubated for 24 hrs followed by [5,6-3H]uracil addition and measured after 72 hrs by liquid scintillation counting analysis relative to control; type: functional; parameters: scale not given: the % may be the effect or the level left
[17] = tested on: Toxoplasma gondii; assay: Antiparasitic activity against Toxoplasma gondii ME49 tachyzoites infected in human Hs27 cells assessed as reduction in parasite proliferation at 50 ug/mL preincubated for 24 hrs followed by [5,6-3H]uracil addition and measured after 72 hrs by liquid scintillation counting analysis relative to control; type: functional; parameters: scale not given: the % may be the effect or the level left
[18] = tested on: Toxoplasma gondii; assay: Antiparasitic activity against Toxoplasma gondii RH tachyzoites infected in human Hs27 cells assessed as reduction in parasite proliferation at 25 ug/mL preincubated for 24 hrs followed by [5,6-3H]uracil addition and measured after 72 hrs by liquid scintillation counting analysis relative to control; type: functional; parameters: scale not given: the % may be the effect or the level left
[19] = tested on: Toxoplasma gondii; assay: Antiparasitic activity against Toxoplasma gondii ME49 tachyzoites infected in human Hs27 cells assessed as reduction in parasite proliferation at 25 ug/mL preincubated for 24 hrs followed by [5,6-3H]uracil addition and measured after 72 hrs by liquid scintillation counting analysis relative to control; type: functional; parameters: scale not given: the % may be the effect or the level left
[20] = tested on: Toxoplasma gondii; assay: Antiparasitic activity against Toxoplasma gondii RH tachyzoites infected in human Hs27 cells assessed as reduction in parasite proliferation at 12.5 ug/mL preincubated for 24 hrs followed by [5,6-3H]uracil addition and measured after 72 hrs by liquid scintillation counting analysis relative to control; type: functional; parameters: scale not given: the % may be the effect or the level left
[21] = tested on: Toxoplasma gondii; assay: Antiparasitic activity against Toxoplasma gondii ME49 tachyzoites infected in human Hs27 cells assessed as reduction in parasite proliferation at 12.5 ug/mL preincubated for 24 hrs followed by [5,6-3H]uracil addition and measured after 72 hrs by liquid scintillation counting analysis relative to control; type: functional; parameters: scale not given: the % may be the effect or the level left
[22] = tested on: Toxoplasma gondii; assay: Antiparasitic activity against Toxoplasma gondii RH tachyzoites infected in human Hs27 cells assessed as reduction in parasite proliferation at 6.25 ug/mL preincubated for 24 hrs followed by [5,6-3H]uracil addition and measured after 72 hrs by liquid scintillation counting analysis relative to control; type: functional; parameters: scale not given: the % may be the effect or the level left
[23] = tested on: Toxoplasma gondii; assay: Antiparasitic activity against Toxoplasma gondii ME49 tachyzoites infected in human Hs27 cells assessed as reduction in parasite proliferation at 6.25 ug/mL preincubated for 24 hrs followed by [5,6-3H]uracil addition and measured after 72 hrs by liquid scintillation counting analysis relative to control; type: functional; parameters: scale not given: the % may be the effect or the level left
[24] = tested on: Toxoplasma gondii; assay: Antiparasitic activity against Toxoplasma gondii RH tachyzoites infected in human Hs27 cells assessed as reduction in parasite proliferation at 3.125 ug/mL preincubated for 24 hrs followed by [5,6-3H]uracil addition and measured after 72 hrs by liquid scintillation counting analysis relative to control; type: functional; parameters: scale not given: the % may be the effect or the level left
[25] = tested on: Toxoplasma gondii; assay: Antiparasitic activity against Toxoplasma gondii ME49 tachyzoites infected in human Hs27 cells assessed as reduction in parasite proliferation at 3.125 ug/mL preincubated for 24 hrs followed by [5,6-3H]uracil addition and measured after 72 hrs by liquid scintillation counting analysis relative to control; type: functional; parameters: scale not given: the % may be the effect or the level left
[26] = tested on: Toxoplasma gondii; assay: Antiparasitic activity against Toxoplasma gondii RH tachyzoites infected in human Hs27 cells assessed as reduction in parasite proliferation at 1.56 ug/mL preincubated for 24 hrs followed by [5,6-3H]uracil addition and measured after 72 hrs by liquid scintillation counting analysis relative to control; type: functional; parameters: scale not given: the % may be the effect or the level left
[27] = tested on: Toxoplasma gondii; assay: Antiparasitic activity against Toxoplasma gondii ME49 tachyzoites infected in human Hs27 cells assessed as reduction in parasite proliferation at 1.56 ug/mL preincubated for 24 hrs followed by [5,6-3H]uracil addition and measured after 72 hrs by liquid scintillation counting analysis relative to control; type: functional; parameters: scale not given: the % may be the effect or the level left
[28] = tested on: Toxoplasma gondii; assay: Antiparasitic activity against Toxoplasma gondii RH tachyzoites infected in human Hs27 cells assessed as reduction in parasite proliferation at 0.78 ug/mL preincubated for 24 hrs followed by [5,6-3H]uracil addition and measured after 72 hrs by liquid scintillation counting analysis relative to control; type: functional; parameters: scale not given: the % may be the effect or the level left
[29] = tested on: Toxoplasma gondii; assay: Antiparasitic activity against Toxoplasma gondii ME49 tachyzoites infected in human Hs27 cells assessed as reduction in parasite proliferation at 0.78 ug/mL preincubated for 24 hrs followed by [5,6-3H]uracil addition and measured after 72 hrs by liquid scintillation counting analysis relative to control; type: functional; parameters: scale not given: the % may be the effect or the level left
[30] = tested on: Toxoplasma gondii; assay: Antiparasitic activity against Toxoplasma gondii RH tachyzoites infected in human Hs27 cells assessed as reduction in parasite proliferation at 0.39 ug/mL preincubated for 24 hrs followed by [5,6-3H]uracil addition and measured after 72 hrs by liquid scintillation counting analysis relative to control; type: functional; parameters: scale not given: the % may be the effect or the level left
[31] = Selectivity ratio of CC30 for cytotoxicity against mouse L929 cells to IC50 for antiparasitic activity against Toxoplasma gondii RH infected in human Hs27 cells; type: toxicity, cell-based
[32] = tested on: Toxoplasma gondii; assay: Antiparasitic activity against Toxoplasma gondii ME49 tachyzoites infected in human Hs27 cells assessed as inhibition of parasitic growth preincubated for 24 hrs followed by [5,6-3H]uracil addition and measured after 72 hrs by liquid scintillation counting analysis; type: functional, organism-based
[33] = Selectivity ratio of CC30 for cytotoxicity against mouse L929 cells to IC50 for antiparasitic activity against Toxoplasma gondii Me49 infected in human Hs27 cells; type: toxicity, cell-based
[34] = Antioxidant activity assessed as DPPH radical scavenging activity incubated for 30 mins under dark condition by Uv-vis spectrophotometric method; type: functional
[35] = Potency index, ratio of butylated hydroxytoluene IC50 to test compound IC50 for antioxidant activity assessed as DPPH radical scavenging activity; type: functional

## Brc1ccc(-c2csc(N/N=C/c3cc4ccccc4s3)n2)cc1
[1]
  CC30: 283.56 µM
[2]
  IC50: 433 µM

## Fc1ccc(-c2csc(N/N=C/c3cc4ccccc4s3)n2)cc1
[1]
  CC30: 1385.75 µM
[2]
  IC50: 396 µM

## Clc1ccc(-c2csc(N/N=C/c3cc4ccccc4s3)n2)cc1
[1]
  CC30: 1255.05 µM
[2]
  IC50: 390 µM

## Ic1ccc(-c2csc(N/N=C/c3cc4ccccc4s3)n2)cc1
[1]
  CC30: 946.2 µM
[2]
  IC50: 431 µM

## Cc1ccc(-c2csc(N/N=C/c3cc4ccccc4s3)n2)cc1
[1]
  CC30: 884.28 µM
[2]
  IC50: 466 µM

## C(=N\Nc1nc(C23CC4CC(CC(C4)C2)C3)cs1)/c1cc2ccccc2s1
[3]
  viability at 24 h, 100 ug/ml: 89%
[4]
  viability at 24 h, 400 ug/ml: 76.8%
[1]
  CC30: 1333.46 µM
[5]
  IC50: 51.9 µM
[6]
  viability at 24 h, 200 ug/ml: 81.8%
[7]
  viability at 24 h, 50 ug/ml: 90.7%
[8]
  viability at 24 h, 25 ug/ml: 98.3%
[9]
  viability at 24 h, 12.5 ug/ml: 96.5%
[10]
  viability at 24 h, 6.25 ug/ml: 101%
[11]
  viability at 24 h, 3.125 ug/ml: 104%
[12]
  viability at 24 h, 1.56 ug/ml: 105%
[13]
  viability at 24 h, 0.78 ug/ml: 107%
[14]
  Activity: 6.32%
[15]
  Activity: 0.53%
[16]
  Activity: 28.7%
[17]
  Activity: 1.17%
[18]
  Activity: 46.12%
[19]
  Activity: 5.61%
[20]
  Activity: 58.29%
[21]
  Activity: 7.85%
[22]
  Activity: 83.32%
[23]
  Activity: 9.6%
[24]
  Activity: 90.86%
[25]
  Activity: 25.5%
[26]
  Activity: 101.85%
[27]
  Activity: 49.76%
[28]
  Activity: 92.05%
[29]
  Activity: 101.96%
[30]
  Activity: 1.24%
[31]
  selectivity ratio: 25.7
[32]
  IC50: 8.74 µM
[33]
  selectivity ratio: 153
[2]
  IC50: 329 µM
[34]
  IC50: 15.5 µM

## COc1cc(Cc2cnc(N)nc2N)cc(OC)c1OC [TRIMETHOPRIM]
[1]
  CC30: 55.11 µM
[5]
  IC50: 41.8 µM
[31]
  selectivity ratio: 1.32
[32]
  IC50: 39.2 µM
[33]
  selectivity ratio: 1.4

## Cc1cc(C(C)(C)C)c(O)c(C(C)(C)C)c1 [BUTYLATED HYDROXYTOLUENE]
[34]
  IC50: 180 µM

## Nc1ccc(S(=O)(=O)Nc2ncccn2)cc1 [SULFADIAZINE]
[1]
  CC30: >= 5000 uM
[31]
  selectivity ratio: 0.46
[32]
  IC50: 13000 µM
[33]
  selectivity ratio: 0.39

## O=c1oc2ccccc2cc1-c1csc(N/N=C/c2cc3ccccc3s2)n1
[34]
  IC50: 15.9 µM
[35]
  Ratio IC50: 10
